Values quoted from earlier work in US20230041138A1, “TREATMENT OF HIS HYPORESPONDERS” (NewAmsterdam Pharma B.V. (Dutch Registration No. 55971946), priority 2021, published 2023).

Test system: LDL-C
Settings: rosuvastatin 20 mg; cited from earlier work

## CC(C)c1nc(N(C)S(C)(=O)=O)nc(-c2ccc(F)cc2)c1/C=C/[C@@H](O)C[C@@H](O)CC(=O)O [rosuvastatin]
  median LDL-C lowering response: 50%
  share of patients with LDL-C reduction <50%: 43%
